Experimental data published in paper PMC10893631, “Receptor-based pharmacophore modeling, molecular docking, synthesis and biological evaluation of novel VEGFR-2, FGFR-1, and BRAF multi-kinase inhibitors” (BMC Chemistry, 2024).

Assays:
FGFR-1 = target: T1, FGFR-1 (Homo sapiens, UniProt P11362); assay: FGFR-1 kinase assay kit (BPS), Kinase-Glo Max luminescence; format: biochemical
T1 construct: purchased BPS Biosciences 40210
Protocol: (§1) 2. Biochemical kinase assay procedure
The inhibitory activity against different kinases was determined using kinase kits (VEGFR-2 cat ID: 40325), (FGFR-1 cat ID: 40210), (BRAF (WT) cat. ID: 78316); purchased from BPS Biosciences and kinase-Glo Max luminescence kinase assay kit (Promega).
(§2) The assay was carried out according to the protocol provided by the manufacturer. A stock solution of the synthesized derivatives in 100% DMSO was prepared. Subsequently, the compounds were diluted to 10% DMSO.
(§3) A master mixture was prepared according to the number of wells. For VEGFR-2 and FGFR-1 biochemical assays each well include 6 μl of 5x Kinase Buffer 1 + 1 μl of 500 μM ATP + 1 μl of PTK Substrate (Poly-Glu,Tyr 4:1) (10 mg/ml) + 17 μl of distilled water. […]
(§4) The plate was incubated at 30 °C for 45 min. Subsequently, 50 μl of Kinase-Glo Max luminescence reagent was added to each well and the plate was covered with aluminum foil and incubated at room temperature 15 min. Finally, the luminescence was recorded using multimode microplate reader. […]
(§5) The luminescence data were analyzed as follows. The difference between luminescence intensities in the absence of kinase (Lut) and in the presence of kinase (Luc) was defined as 100 % activity (Lut – Luc). Using luminescence signal (Lu) in the presence of the compound, % activity was calculated as: % activity = {(Lut - Lu)/(Lut - Luc)}×100%. […]

BRAF (WT) = target: T2, BRAF (WT) (Homo sapiens, UniProt P15056); assay: BRAF kinase assay kit (BPS), Kinase-Glo Max luminescence; format: biochemical
T2 construct: purchased BPS Biosciences 78316
Protocol: as §1
The inhibitory activity against different kinases was determined using kinase kits […]
from BPS Biosciences and kinase-Glo Max luminescence kinase assay kit (Promega).
as §2, §3, §4, §5

MCF-7 cells [1] = assay: Cell cycle analysis by PI flow cytometry; format: cell-based; details: MCF-7, at GI50 concentration
Protocol: After the cells were handled as previously described, the distribution of the cells at each stage of the cell cycle was analysed. (For further details see Additional file 1: section II: practical results).
6. Analysis of Cell Cycle Distribution
(§6) MCF-7: Breast Adenocarcinoma was obtained from Nawah Scientific Inc., (Mokatam, Cairo, Egypt). Cells were maintained in DMEM media supplemented with […] of streptomycin, 100 units/mL of penicillin and 10% of heat-inactivated fetal bovine serum in humidified, 5% (v/v) CO2 atmosphere at 37 °C. […]
cells) are collected by trypsinization and washed twice with ice-cold PBS (pH 7.4). Cells are re-suspended in two milliliters of 60% ice-cold ethanol and incubated at 4 °C for 1 h for fixation. Fixed cells are washed twice again with PBS (pH 7.4) and re-suspended in 1 mL of PBS containing 50 µg/mL RNAase A and 10 µg/mL propidium iodide (PI). After 20 min of incubation in dark at 37 C, cells are analyzed for DNA contents using flow cytometry analysis using FL2 (λex/em 535/617 nm) signal detector (ACEA Novocyte™ flowcytometer, ACEA Biosciences Inc., San Diego, CA, USA). For each sample, 12,000 events are acquired.
Cell cycle distribution is calculated using ACEA NovoExpress™ software (ACEA Biosciences Inc., San Diego, CA, USA).
*G0/G1-phase: This phase denotes the non-proliferating cells. Compounds with antiproliferative effect (regardless of their cytotoxicity) are expected to increase this cell […]
*S-phase: This phase denotes proliferating cells and particularly the cells who are undergoing DNA synthesis step of replication. Some compounds might induce S-phase […]
*G2/M-phase: This phase indicates the final phase of cell replication (mitosis). […]

MCF-7 cells [2] = assay: Annexin V-FITC apoptosis assay; format: cell-based; details: MCF-7, at GI50 concentration
Protocol: As previously reported, the Annexin V-FITC apoptosis detection kit (Abcam Inc., Cambridge, UK) in conjunction with two fluorescent channels flow cytometry was used to identify the populations of apoptosis and necrosis cells. (For further details see Additional file 1: section II: practical results). […]
as §6
Biosciences Inc., San Diego, CA, USA). […]
Apoptosis and necrosis cell populations are determined using Annexin V-FITC apoptosis detection kit (Abcam Inc., Cambridge Science Park, Cambridge, UK) coupled with 2 fluorescent channels flowcytometry. After treatment with test compounds for 48h, cells (105 […]
trypsinization and washed twice with ice-cold PBS (pH 7.4). Then, cells are incubated in dark with 0.5 ml of Annexin V-FITC/PI solution for 30 min in dark at room temperature according to manufacturer protocol. After staining, cells are injected via ACEA

T2 sequence (P15056 whole entry): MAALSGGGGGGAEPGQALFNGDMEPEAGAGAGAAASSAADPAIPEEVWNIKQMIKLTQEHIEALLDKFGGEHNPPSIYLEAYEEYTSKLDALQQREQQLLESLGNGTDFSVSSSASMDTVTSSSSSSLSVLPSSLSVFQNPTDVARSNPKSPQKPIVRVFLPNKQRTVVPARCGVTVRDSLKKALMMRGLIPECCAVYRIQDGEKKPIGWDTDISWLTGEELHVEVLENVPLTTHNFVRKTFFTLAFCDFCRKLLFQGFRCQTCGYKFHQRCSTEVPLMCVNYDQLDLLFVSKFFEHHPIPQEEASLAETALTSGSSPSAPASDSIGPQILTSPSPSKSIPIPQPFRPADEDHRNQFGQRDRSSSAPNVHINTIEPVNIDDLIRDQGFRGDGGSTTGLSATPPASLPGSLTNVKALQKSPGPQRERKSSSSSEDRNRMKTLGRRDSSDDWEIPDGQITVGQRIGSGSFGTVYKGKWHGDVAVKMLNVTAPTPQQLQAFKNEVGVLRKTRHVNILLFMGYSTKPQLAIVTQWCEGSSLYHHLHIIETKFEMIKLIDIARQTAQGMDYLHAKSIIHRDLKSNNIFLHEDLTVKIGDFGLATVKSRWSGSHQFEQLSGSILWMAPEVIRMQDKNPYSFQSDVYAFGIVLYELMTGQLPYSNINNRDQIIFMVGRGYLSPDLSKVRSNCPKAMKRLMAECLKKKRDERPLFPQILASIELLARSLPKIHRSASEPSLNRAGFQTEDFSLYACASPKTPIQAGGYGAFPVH
T1 sequence (P11362 22-822): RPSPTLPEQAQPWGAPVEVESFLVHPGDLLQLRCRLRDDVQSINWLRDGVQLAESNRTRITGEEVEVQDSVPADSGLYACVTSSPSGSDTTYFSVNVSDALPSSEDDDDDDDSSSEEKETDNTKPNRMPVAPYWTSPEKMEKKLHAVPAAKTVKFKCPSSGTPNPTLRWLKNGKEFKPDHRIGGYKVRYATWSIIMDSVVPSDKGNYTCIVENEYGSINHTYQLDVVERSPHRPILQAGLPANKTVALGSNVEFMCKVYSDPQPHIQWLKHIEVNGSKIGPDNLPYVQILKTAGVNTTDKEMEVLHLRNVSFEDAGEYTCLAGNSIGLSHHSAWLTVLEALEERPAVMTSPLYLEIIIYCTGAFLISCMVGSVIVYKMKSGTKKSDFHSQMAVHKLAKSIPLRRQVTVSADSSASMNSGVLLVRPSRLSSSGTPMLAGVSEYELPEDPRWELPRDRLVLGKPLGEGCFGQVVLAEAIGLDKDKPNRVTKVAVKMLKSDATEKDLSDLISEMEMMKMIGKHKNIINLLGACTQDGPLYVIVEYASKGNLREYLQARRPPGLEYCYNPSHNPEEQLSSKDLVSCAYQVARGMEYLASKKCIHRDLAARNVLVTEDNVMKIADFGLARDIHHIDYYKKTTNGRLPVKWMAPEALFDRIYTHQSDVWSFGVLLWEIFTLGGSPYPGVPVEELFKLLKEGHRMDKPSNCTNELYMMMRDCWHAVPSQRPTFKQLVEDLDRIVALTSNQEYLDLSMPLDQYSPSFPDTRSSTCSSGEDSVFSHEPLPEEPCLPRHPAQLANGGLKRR

With `COc1cc(C=NNC(=O)c2ccc3[nH]c(-c4ccc(Cl)cc4)nc3c2)cc(OC)c1OC` [8u, 2-(4-Chlorophenyl)-N'-(3,4,5-trimethoxybenzylidene)-1H-benzo[d]imidazole-5-carbohydrazide] the IC50 (FGFR-1) was 3.74 ± 0.34 µM, the IC50 (BRAF (WT)) was 0.25 ± 0.03 µM and the cell cycle arrest (MCF-7 cells [1]) was “arrests the MCF-7 cell line at the G2/M phase”. For the same compound, the “%Sub-G1” value (MCF-7 cells [1]; 48h, control 2.64) was 4.40%, the “%G2/M” value (MCF-7 cells [1]; 48h, control 20.60) was 25.57% and the “%S” value (MCF-7 cells [1]; 48h, control 23.10) was 29.11%. The “%G0/G1” value (MCF-7 cells [1]; 48h, control 56.30) was 45.32%, the apoptosis induction (MCF-7 cells [2]) was “induces cell apoptosis in MCF-7 cell line” and the “% necrotic cells (Q2-1)” value (MCF-7 cells [2]; 48h) was 1.09%. The “% viable cells (Q2-3)” value (MCF-7 cells [2]; 48h) was 92.92%, the “% of cells in early apoptosis (Q2-4)” value (MCF-7 cells [2]; 48h, control 0.25%) was 1.46% and the “% of cells in late apoptosis (Q2-2)” value (MCF-7 cells [2]; 48h, control 2.36%) was 4.54%.
